Source: US20240239794A1, “PKC-Theta Modulators” (Exscientia AI Limited, priority 2021, published 2024)
Read-outs that look alike come from different tables or passages of the source.

How the values were obtained:
[1] = target: Recombinant human PKC-delta (His-tagged 345-676) (Homo sapiens (Human), UniProt Q05655); assay: PKC-delta inhibition assay (HTRF KinEASE kit), PKC-theta/PKC-delta selectivity; type: biochemical; conditions: ratio; for PKC-theta/PKC-delta selectivity: PKC-theta over PKC-delta, HTRF assays; for PKC-theta/PKC-delta selectivity (binned): binned A to G
Recombinant human PKC-delta (His-tagged 345-676), sequence (Q05655 345-676): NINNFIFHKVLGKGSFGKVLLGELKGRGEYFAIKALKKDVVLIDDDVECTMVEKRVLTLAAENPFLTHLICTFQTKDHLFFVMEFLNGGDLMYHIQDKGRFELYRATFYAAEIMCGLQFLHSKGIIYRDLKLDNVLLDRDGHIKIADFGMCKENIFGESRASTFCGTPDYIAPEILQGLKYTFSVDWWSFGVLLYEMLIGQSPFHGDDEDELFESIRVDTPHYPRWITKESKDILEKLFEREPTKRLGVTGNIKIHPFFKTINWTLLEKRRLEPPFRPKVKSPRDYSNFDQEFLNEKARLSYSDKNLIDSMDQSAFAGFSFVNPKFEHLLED
Procedure: (§1) PKC-theta and PKC-delta biochemical activities were measured using the PKC-theta HTRF KinEASEkit kit, according to manufacturer's instructions (Cisbio, catalogue number 61ST1PEJ). Briefly, the kinase buffer component of the kit was supplemented with 10 mM MgCl2, 1 mM DTT and 0.1% Tween 20. For the PKC-theta assay, STK substrate and ATP were added to provide a final assay concentration of 525 nM and 6.5 μM, respectively. For the PKC-delta assay, STK substrate and ATP were added to provide a final assay concentration of 243 nM and 5.7 μM, respectively. The streptavidin_XL665 and STK antibody-cryptate detection reagents were mixed according to the manufacturer's instructions. Test compounds were diluted in DMSO in a series of 10 semi-log step doses; 10 nL of each compound dose were dispensed in 384 well plates. Recombinant human PKC-theta (His-tagged 362-706) or PKC-delta (His-tagged 345-676) was diluted into kinase buffer to provide a final assay concentration of 10 ng/ml and added to the test compound for 30 minutes on ice. The reaction was started by addition of the substrate and ATP and incubated at 25° C. for 30 minutes or 20 minutes for the PKC-theta and PKC-delta assays, respectively. The detection reagents were added, and the plate was incubated in the dark for 2 hours. Fluorescence was measured on an Envision 2103 plate reader with optical setup for […] in the HTRF mode. The ratio of acceptor and donor emission signals was calculated for each well. Percent inhibition values were calculated from the HTRF ratios at different doses and fitted to a 4-parameter logistic curve to determine IC50 values (see Table 1).

[2] = target: Recombinant human PKC-theta (His-tagged 362-706) (Homo sapiens (Human), UniProt Q04759); assay: PKC-theta inhibition assay (HTRF KinEASE kit); type: biochemical; conditions: ATP 6.5 μM
Recombinant human PKC-theta (His-tagged 362-706), sequence (Q04759 362-706): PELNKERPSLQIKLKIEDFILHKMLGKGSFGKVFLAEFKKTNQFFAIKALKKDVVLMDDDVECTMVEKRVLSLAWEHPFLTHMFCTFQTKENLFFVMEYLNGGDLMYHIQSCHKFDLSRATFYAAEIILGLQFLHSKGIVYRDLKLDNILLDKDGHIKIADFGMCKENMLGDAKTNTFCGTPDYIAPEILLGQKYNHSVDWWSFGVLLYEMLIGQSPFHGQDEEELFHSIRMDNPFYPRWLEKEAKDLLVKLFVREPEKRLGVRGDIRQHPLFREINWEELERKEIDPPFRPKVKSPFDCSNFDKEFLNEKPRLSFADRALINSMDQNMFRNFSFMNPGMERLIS
Procedure: as §1

[3] = test system: IL-2 secretion by human effector memory T cells (TEM); assay: Effector memory T cells IL-2 release assay; type: cell-based; conditions: T-cell, human CD4+ TEM cells, CD3/CD28 bead stimulation, 24 h
Procedure: Test compound-mediated inhibition of NFκB signalling in T cells was assessed by quantification of the IL-2 secretion by human effector memory T cells (TEM) upon treatment and stimulation. Human TEM cells were isolated from buffy coats of healthy donors obtained from the French blood bank. First, peripheral blood mononuclear cells (PBMC) were purified from buffy coats diluted 1:1 with DPBS (Gibco, cat #14190-094) by Pancoll (PAN BIOTECH, cat #P04-60500) density gradient centrifugation at 400×g for 20 minutes. TEM cells were further enriched by negative immuno-magnetic cell sorting using a human CD4+ Effector Memory T Cell Isolation Kit (Miltenyi, cat #130-094-125) according to the manufacturer's instructions. Aliquots of 3×10E6 purified TEM cells were kept frozen in Cryo-SFM medium (PromoCell, cat #C-29912) in gas phase nitrogen until used. Cell purity was verified by flow cytometry analysis of 200 000 PFA-fixed cells previously labelled with monoclonal antibodies anti-CD4-PerCP-Cy5.5 (BD Pharmigen, cat #332772), anti-CD8-V500 (BD Biosciences, cat #561617), anti-CD14-Pacific Blue (Biolegend, cat #325616), anti-CD45 RA-FITC (Biolegend, cat #304106) and anti-CCR7-APC (in CD4+ Effector Memory T Cell Isolation Kit, Miltenyi, cat #130-094-125).
TEM cells were resuspended in complete RPMI medium composed of: RPMI 1640 (Gibco, cat #31870-025), 10% heat inactivated fetal bovine serum (Sigma, cat #F7524), 2 mM GlutaMAX (Gibco, cat #35050-038), 1 mM sodium pyruvate 100× (Gibco, cat #11360-039), 1% MEM non-essential amino acids solution (Gibco, cat #11140-035) and 100 U/mL penicillin, 100 µg/mL streptomycin (Sigma-Aldrich, cat #11074440001). 5,000 cells per well were plated onto flat clear bottom 384 well plates (Corning, cat #3770). 5,000 Dynabeads Human T-Activator CD3/CD28 (Gibco, cat #11132D) were added to each well for cell stimulation. Finally, 10 doses of test compound, originally prepared in DMSO by serial semi-log step dilution, were also added to cells in triplicate wells. Final DMSO concentration in wells was 0.1% in a total volume of 100 µL complete medium. Plates were incubated for 24 h at 37° C. in 5% CO2 atmosphere. After incubation, cell suspensions were centrifuged at 400×g and culture supernatants were recovered and stored at −80° C. Cell viability was assessed by flow cytometry after staining the cells with Fixable Viability Dye eFluor 780 (Invitrogen, cat #65-0865-14). IL-2 levels were determined in cell supernatants using an HTRF human IL-2 detection kit (Cisbio, cat #62HIL02PEH). IL-2 data at the different compound doses were fitted to a 4-parameter logistic curve to determine IC50 values, corresponding to the compound concentration leading to 50% reduction of the maximal IL-2 levels observed in each experiment. Viability data were analysed similarly to exclude cytotoxicity as a cause of IL-2 decrease (see Table 1).

[4] = binned A to H, read-out: PKC-theta HTRF pIC50 (binned) (converted)
[5] = binned A to G, read-out: PKC-theta IL2 pIC50 (binned) (converted)
[6] = read-out: PKC-theta IL2 pIC50 (converted)
[7] = read-out: PKC-theta HTRF pIC50 (converted)

CC1(C)C(=O)Nc2nccc(-c3nn([C@H]4CCNC4)c4cc(F)ccc34)c21 [Example 70]
PKC-theta/PKC-delta selectivity [1]: 20 | PKC-theta/PKC-delta selectivity (binned) [1]: C (C means a ratio of between 20 and 30) | PKC-theta HTRF pIC50 [2]: 8.1 | IC50 [2, 4]: 3.16 to 10 nM | IC50 [3, 5]: 100 to 316 nM | IC50 [3, 6]: 126 nM

CC[C@]1(C)C(=O)Nc2nccc(-c3nn([C@H]4CCNC[C@H]4F)c4ccc(F)cc34)c21 (single isomer, unassigned) [Example 100]
PKC-theta/PKC-delta selectivity [1]: 29 | PKC-theta/PKC-delta selectivity (binned) [1]: C (C means a ratio of between 20 and 30) | IC50 [2, 4]: 3.16 to 10 nM | IC50 [2, 7]: 7.94 nM | IC50 [3, 5]: 31.6 to 100 nM | IC50 [3, 6]: 100 nM

CO[C@@]1(C)C(=O)Nc2nccc(-c3nn([C@H]4CCNC[C@H]4F)c4ccccc34)c21 (single isomer, unassigned) [Example 93]
PKC-theta/PKC-delta selectivity [1]: 10 | PKC-theta/PKC-delta selectivity (binned) [1]: E (E means a ratio of between 5 and 10) | IC50 [2, 4]: 3.16 to 10 nM | IC50 [2, 7]: 3.98 nM | IC50 [3, 5]: 31.6 to 100 nM | IC50 [3, 6]: 50.1 nM

CC1(O)C(=O)Nc2nccc(-c3cn([C@H]4CCNC4)c4ccccc34)c21 (stereo partly drawn) [Example 18]
PKC-theta/PKC-delta selectivity [1]: 11 | PKC-theta/PKC-delta selectivity (binned) [1]: D (D means a ratio of between 10 and 20) | PKC-theta HTRF pIC50 [2]: 7.9 | IC50 [2, 4]: 10 to 31.6 nM | IC50 [3, 5]: 316 to 1000 nM | IC50 [3, 6]: 316 nM

C[C@@]1(O)C(=O)Nc2nccc(-c3nn(CC4CCNCC4)c4ccccc34)c21 (single isomer, unassigned) [Example 29]
PKC-theta/PKC-delta selectivity [1]: 24 | PKC-theta/PKC-delta selectivity (binned) [1]: C (C means a ratio of between 20 and 30) | IC50 [2, 4]: ≤ 1 nM | IC50 [2, 7]: 0.398 nM | IC50 [3, 5]: 31.6 to 100 nM | IC50 [3, 6]: 39.8 nM

C[C@@]1(O)C(=O)Nc2nccc(-c3nn(C4CCNCC4)c4ccccc34)c21 (single isomer, unassigned) [Example 27]
PKC-theta/PKC-delta selectivity [1]: 5 | PKC-theta/PKC-delta selectivity (binned) [1]: E (E means a ratio of between 5 and 10) | IC50 [2, 4]: 31.6 to 100 nM | IC50 [2, 7]: 50.1 nM | IC50 [3, 5]: > 1000 nM | IC50 [3, 6]: 1580 nM

CO[C@@]1(C)C(=O)Nc2nccc(-c3nn([C@@H]4CCNC[C@@H]4F)c4ccccc34)c21 (single isomer, unassigned) [Example 92]
PKC-theta/PKC-delta selectivity [1]: 15 | PKC-theta/PKC-delta selectivity (binned) [1]: D (D means a ratio of between 10 and 20) | IC50 [2, 4]: 10 to 31.6 nM | IC50 [2, 7]: 12.6 nM | IC50 [3, 5]: 100 to 316 nM | IC50 [3, 6]: 158 nM

CC[C@@]1(C)C(=O)Nc2nccc(-c3nn([C@H]4CCNC[C@H]4F)c4ccc(F)cc34)c21 (single isomer, unassigned) [Example 99]
PKC-theta/PKC-delta selectivity [1]: 105 | PKC-theta/PKC-delta selectivity (binned) [1]: A (A means a ratio of between 50 and 120) | IC50 [2, 4]: 31.6 to 100 nM | IC50 [2, 7]: 100 nM | IC50 [3, 5]: 316 to 1000 nM | IC50 [3, 6]: 398 nM

CC1(C)C(=O)Nc2nccc(-c3nn([C@@H]4CCNC[C@@H]4F)c4ccccc34)c21 [Example 37]
PKC-theta/PKC-delta selectivity [1]: 19 | PKC-theta/PKC-delta selectivity (binned) [1]: D (D means a ratio of between 10 and 20) | PKC-theta HTRF pIC50 [2]: 8.6 | IC50 [2, 4]: 1 to 3.16 nM | IC50 [3, 5]: 10 to 31.6 nM | IC50 [3, 6]: 25.1 nM

CO[C@]1(C)C(=O)Nc2nccc(-c3nn([C@@H]4CCNC[C@@H]4F)c4ccccc34)c21 (single isomer, unassigned) [Example 90]
PKC-theta/PKC-delta selectivity [1]: 11 | PKC-theta/PKC-delta selectivity (binned) [1]: D (D means a ratio of between 10 and 20) | IC50 [2, 4]: ≤ 1 nM | IC50 [2, 7]: 1 nM | IC50 [3, 5]: 10 to 31.6 nM | IC50 [3, 6]: 15.8 nM

C[C@@]1(O)C(=O)Nc2nccc(-c3nn(C4CCNCC4)c4c(OC(F)F)cccc34)c21 (single isomer, unassigned) [Example 43]
PKC-theta/PKC-delta selectivity [1]: 11 | PKC-theta/PKC-delta selectivity (binned) [1]: D (D means a ratio of between 10 and 20) | IC50 [2, 4]: 3.16 to 10 nM | IC50 [2, 7]: 7.94 nM | IC50 [3, 5]: 316 to 1000 nM | IC50 [3, 6]: 316 nM

CO[C@]1(C)C(=O)Nc2nccc(-c3nn(CC4(F)CCNCC4)c4ccccc34)c21 (single isomer, unassigned) [Example 75]
PKC-theta/PKC-delta selectivity [1]: 19 | PKC-theta/PKC-delta selectivity (binned) [1]: D (D means a ratio of between 10 and 20) | IC50 [2, 4]: 1 to 3.16 nM | IC50 [2, 7]: 2 nM | IC50 [3, 5]: 31.6 to 100 nM | IC50 [3, 6]: 50.1 nM

C[C@@]1(O)C(=O)Nc2nccc(-c3nn(CC4(F)CCNCC4)c4ccccc34)c21 (single isomer, unassigned) [Example 47]
PKC-theta/PKC-delta selectivity [1]: 12 | PKC-theta/PKC-delta selectivity (binned) [1]: D (D means a ratio of between 10 and 20) | IC50 [2, 4]: ≤ 1 nM | IC50 [2, 7]: 0.631 nM | IC50 [3, 5]: 10 to 31.6 nM | IC50 [3, 6]: 25.1 nM

Cc1nn(C2CCNCC2)cc1-c1ccnc2[nH]c(=O)[nH]c12 [Example 2]
PKC-theta/PKC-delta selectivity [1]: 0.2 | PKC-theta/PKC-delta selectivity (binned) [1]: G (G means a ratio of between 0 and 1) | PKC-theta HTRF pIC50 [2]: 5.1 | IC50 [2, 4]: > 1000 nM | IC50 [3, 5]: > 1000 nM | IC50 [3, 6]: 10000 nM

CC1(Cn2nc(-c3ccnc4c3C(C)(C)C(=O)N4)c3ccccc32)COCCN1 (stereo not drawn) [Example 54, 3,3-dimethyl-4-[1-[(3-methylmorpholin-3-yl)methyl]indazol-3-yl]-1H-pyrrolo[2,3-b]pyridin-2-one]
PKC-theta/PKC-delta selectivity [1]: 22 | PKC-theta/PKC-delta selectivity (binned) [1]: C (C means a ratio of between 20 and 30) | PKC-theta HTRF pIC50 [2]: 8.6 | IC50 [2, 4]: 1 to 3.16 nM | IC50 [3, 5]: 31.6 to 100 nM | IC50 [3, 6]: 79.4 nM

CC[C@]1(C)C(=O)Nc2nccc(-c3nn([C@@H]4CCNC[C@@H]4F)c4ccccc34)c21 (single isomer, unassigned) [Example 106]
PKC-theta/PKC-delta selectivity [1]: 15 | PKC-theta/PKC-delta selectivity (binned) [1]: D (D means a ratio of between 10 and 20) | IC50 [2, 4]: ≤ 1 nM | IC50 [2, 7]: 0.794 nM | IC50 [3, 5]: 10 to 31.6 nM | IC50 [3, 6]: 12.6 nM

CC[C@@]1(OC)C(=O)Nc2nccc(-c3nn(CC4(F)CCNCC4)c4ccccc34)c21 (single isomer, unassigned) [Example 88]
PKC-theta/PKC-delta selectivity [1]: 14 | PKC-theta/PKC-delta selectivity (binned) [1]: D (D means a ratio of between 10 and 20) | IC50 [2, 4]: 3.16 to 10 nM | IC50 [2, 7]: 3.98 nM | IC50 [3, 5]: 100 to 316 nM | IC50 [3, 6]: 200 nM

CN[C@@]1(C)C(=O)Nc2nccc(-c3nn(C4(CC#N)CCC4)c4ccccc34)c21 (single isomer, unassigned) [Example 94]
PKC-theta/PKC-delta selectivity [1]: 23 | PKC-theta/PKC-delta selectivity (binned) [1]: C (C means a ratio of between 20 and 30) | IC50 [2, 4]: 3.16 to 10 nM | IC50 [2, 7]: 3.98 nM | IC50 [3, 5]: 100 to 316 nM | IC50 [3, 6]: 126 nM
